What was measured:
Nitric oxide synthase 1 = Nitric oxide synthase 1 (Rattus norvegicus, UniProt P29476)
Nitric oxide synthase 3 = target: T1, Nitric oxide synthase 3 (Bos taurus, UniProt P29473)
T1 sequence (P29473 whole entry): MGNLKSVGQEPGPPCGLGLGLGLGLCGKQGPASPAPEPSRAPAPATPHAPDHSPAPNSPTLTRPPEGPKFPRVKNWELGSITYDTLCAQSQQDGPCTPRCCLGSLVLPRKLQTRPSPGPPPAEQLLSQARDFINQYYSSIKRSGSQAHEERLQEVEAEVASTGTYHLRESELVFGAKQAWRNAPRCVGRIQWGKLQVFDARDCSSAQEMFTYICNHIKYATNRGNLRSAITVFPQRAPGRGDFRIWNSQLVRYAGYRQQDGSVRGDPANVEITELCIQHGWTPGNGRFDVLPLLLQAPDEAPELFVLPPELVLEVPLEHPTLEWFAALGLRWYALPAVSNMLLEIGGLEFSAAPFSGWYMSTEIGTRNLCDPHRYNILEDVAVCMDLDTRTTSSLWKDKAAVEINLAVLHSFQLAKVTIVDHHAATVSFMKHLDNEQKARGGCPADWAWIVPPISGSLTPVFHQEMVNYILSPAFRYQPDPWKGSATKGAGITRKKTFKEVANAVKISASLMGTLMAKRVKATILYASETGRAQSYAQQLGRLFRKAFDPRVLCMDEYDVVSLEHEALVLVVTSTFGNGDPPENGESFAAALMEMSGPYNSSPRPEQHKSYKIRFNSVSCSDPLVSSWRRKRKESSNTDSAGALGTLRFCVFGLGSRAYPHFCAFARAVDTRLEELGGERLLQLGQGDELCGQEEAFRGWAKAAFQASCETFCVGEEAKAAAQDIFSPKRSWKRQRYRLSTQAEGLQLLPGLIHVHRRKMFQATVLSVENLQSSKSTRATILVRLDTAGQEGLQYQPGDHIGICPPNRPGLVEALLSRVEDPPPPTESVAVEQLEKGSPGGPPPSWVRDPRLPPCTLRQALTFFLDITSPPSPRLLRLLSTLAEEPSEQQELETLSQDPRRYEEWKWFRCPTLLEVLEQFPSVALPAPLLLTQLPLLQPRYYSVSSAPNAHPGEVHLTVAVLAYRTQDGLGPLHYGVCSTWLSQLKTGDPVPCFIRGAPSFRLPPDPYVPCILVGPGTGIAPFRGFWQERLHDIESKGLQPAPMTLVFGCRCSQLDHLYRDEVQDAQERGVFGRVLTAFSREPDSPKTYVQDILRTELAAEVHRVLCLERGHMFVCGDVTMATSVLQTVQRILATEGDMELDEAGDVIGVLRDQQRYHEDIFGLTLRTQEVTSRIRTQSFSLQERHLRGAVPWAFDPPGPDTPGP

[1] = target: T2, Nitric oxide synthase, inducible (Mus musculus, UniProt P29477)
T2 sequence (P29477 whole entry): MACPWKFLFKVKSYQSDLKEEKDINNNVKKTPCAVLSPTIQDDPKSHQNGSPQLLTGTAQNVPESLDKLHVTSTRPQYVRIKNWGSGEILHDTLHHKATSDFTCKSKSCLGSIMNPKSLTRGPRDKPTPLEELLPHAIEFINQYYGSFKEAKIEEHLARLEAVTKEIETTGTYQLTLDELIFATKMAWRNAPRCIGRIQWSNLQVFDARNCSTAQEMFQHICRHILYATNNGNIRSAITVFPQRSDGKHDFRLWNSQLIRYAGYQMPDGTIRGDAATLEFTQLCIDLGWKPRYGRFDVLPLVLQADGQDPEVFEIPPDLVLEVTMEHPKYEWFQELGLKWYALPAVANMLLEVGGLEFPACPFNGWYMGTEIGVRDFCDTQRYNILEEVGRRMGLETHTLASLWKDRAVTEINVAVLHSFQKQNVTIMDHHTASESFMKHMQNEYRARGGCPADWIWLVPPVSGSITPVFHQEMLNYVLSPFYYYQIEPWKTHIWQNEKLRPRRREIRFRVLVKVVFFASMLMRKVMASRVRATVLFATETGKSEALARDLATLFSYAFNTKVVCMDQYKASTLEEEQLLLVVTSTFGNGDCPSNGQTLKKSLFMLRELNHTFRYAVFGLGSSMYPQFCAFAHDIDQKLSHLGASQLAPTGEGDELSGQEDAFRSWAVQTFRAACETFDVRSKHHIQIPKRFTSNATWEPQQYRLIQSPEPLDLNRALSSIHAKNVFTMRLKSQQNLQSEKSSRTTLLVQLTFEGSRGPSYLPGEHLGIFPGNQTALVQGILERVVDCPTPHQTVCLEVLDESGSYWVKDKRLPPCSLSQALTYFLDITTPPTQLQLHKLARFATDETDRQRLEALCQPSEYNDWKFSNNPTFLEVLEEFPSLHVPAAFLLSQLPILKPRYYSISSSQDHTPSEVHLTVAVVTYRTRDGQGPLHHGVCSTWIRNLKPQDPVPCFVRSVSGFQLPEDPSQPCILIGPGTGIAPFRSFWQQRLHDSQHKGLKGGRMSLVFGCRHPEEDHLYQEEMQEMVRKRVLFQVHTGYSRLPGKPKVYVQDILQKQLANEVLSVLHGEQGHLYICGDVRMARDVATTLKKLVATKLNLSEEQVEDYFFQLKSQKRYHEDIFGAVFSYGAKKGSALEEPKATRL

[2] = Selectivity ratio of Ki for mouse recombinant iNOS to Ki for rat recombinant nNOS
[3] = Selectivity ratio of Ki for bovine recombinant eNOS to Ki for rat recombinant nNOS
Caco-2 = settings: human, caco-2, 2 h, 10 µM

Chain of Nitric oxide synthase 1 (P29476 whole entry): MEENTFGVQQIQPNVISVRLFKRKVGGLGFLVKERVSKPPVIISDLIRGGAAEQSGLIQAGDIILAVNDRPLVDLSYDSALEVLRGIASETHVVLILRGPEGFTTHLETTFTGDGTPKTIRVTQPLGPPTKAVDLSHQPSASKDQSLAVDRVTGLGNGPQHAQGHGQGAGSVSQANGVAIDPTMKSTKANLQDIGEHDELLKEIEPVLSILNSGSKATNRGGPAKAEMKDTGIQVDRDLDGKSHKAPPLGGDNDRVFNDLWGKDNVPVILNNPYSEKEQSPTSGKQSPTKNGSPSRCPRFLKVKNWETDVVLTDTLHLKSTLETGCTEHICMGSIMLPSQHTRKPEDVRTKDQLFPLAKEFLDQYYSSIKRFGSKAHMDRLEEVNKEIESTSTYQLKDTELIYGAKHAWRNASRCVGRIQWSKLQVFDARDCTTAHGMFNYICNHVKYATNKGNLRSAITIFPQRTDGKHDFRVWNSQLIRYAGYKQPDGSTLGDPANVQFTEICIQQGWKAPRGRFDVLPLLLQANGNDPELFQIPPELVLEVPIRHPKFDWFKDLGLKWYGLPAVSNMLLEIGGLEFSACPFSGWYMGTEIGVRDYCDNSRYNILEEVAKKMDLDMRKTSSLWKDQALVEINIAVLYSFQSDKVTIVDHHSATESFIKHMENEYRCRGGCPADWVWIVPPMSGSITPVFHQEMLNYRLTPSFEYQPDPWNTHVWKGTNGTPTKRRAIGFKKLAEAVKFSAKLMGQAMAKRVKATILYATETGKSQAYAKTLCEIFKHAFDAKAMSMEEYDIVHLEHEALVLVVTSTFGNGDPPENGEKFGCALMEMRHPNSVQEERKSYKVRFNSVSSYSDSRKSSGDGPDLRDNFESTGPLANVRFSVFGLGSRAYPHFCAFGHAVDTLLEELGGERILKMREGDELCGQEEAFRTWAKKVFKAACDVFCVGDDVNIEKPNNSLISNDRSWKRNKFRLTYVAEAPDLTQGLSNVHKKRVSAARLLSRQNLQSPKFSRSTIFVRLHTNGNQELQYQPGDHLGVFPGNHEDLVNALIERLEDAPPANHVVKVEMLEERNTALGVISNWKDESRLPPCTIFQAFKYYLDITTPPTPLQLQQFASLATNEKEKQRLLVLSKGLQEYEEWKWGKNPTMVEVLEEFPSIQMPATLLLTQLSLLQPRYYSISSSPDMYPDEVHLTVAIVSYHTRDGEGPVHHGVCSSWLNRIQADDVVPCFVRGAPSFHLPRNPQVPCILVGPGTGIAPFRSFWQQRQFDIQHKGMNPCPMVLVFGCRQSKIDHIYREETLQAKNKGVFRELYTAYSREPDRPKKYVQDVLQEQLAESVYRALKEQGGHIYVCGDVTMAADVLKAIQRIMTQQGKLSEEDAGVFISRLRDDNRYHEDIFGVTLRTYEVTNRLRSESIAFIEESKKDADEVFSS

SMILES | Ki (Nitric oxide synthase 1) [µM] | Ratio Ki [2] | Ratio Ki [3] | further results
Nc1ccc2cc(CNCCc3cccc(F)c3)ccc2n1 | > 5.7 |  |  | 
Nc1ccc2cc(CCNCCCc3cccc(F)c3)ccc2n1 | 4.37 |  |  | 
Nc1ccc2ccc(CNCCc3cccc(F)c3)cc2n1 |  | 124 | 6.2 | 
Cl.Cl.Cl.N=C(Nc1ccc(CCNCc2cccc(Cl)c2)cc1)c1cccs1 |  |  |  | Drug recovery (Caco-2): 78%; IC50 (Nitric oxide synthase 1): 0.035 µM
Nc1ccc2ccc(CCNCCc3ccc(F)cc3)cc2n1 |  | 280 | 37 | 
Nc1ccc2cc(CCNCCc3cccc(F)c3)ccc2n1 | > 5.7 |  |  | 

Second part, led by results:

Ki (Nitric oxide synthase 1) [µM] | Ratio Ki [2] | Ratio Ki [3] | SMILES | further results
> 5.7 |  |  | Nc1ccc2cc(CCNCc3cccc(F)c3)ccc2n1 | 
0.06 | 538 | 62 | Nc1ccc2ccc(CNCCCc3cccc(F)c3)cc2n1 | Ki (Nitric oxide synthase 3): 3.69 µM; Ki [1]: 32.3 µM
 | 91 | 47 | Nc1ccc2ccc(CCNCCc3ccc(Cl)cc3)cc2n1 | 
 | 97 | 30 | Nc1ccc2ccc(CCNCc3cccc(F)c3)cc2n1 | 
